One test deals with AMPA receptors. As to conditions: cited from earlier work.
The test system of test [1] is NMDA (N-methyl-D-aspartate) receptors. To be noted: cited from earlier work.
The next test concerns kainate receptors. As to conditions: cited from earlier work.
For the next test, the target named is AMPA type receptors. The test is described as follows: 3H-AMPA binding (Test 1). As to conditions: rat cerebral cortical membrane homogenate; 5 nM 3H-AMPA; pH 7.1; 0° C., 30 min; read-out: TEST 1 IC50 (displacement of 50% of the specific binding of 3H-AMPA). An excerpt:
AMPA receptor binding may be studied by using ^3 H-AMPA as radioligand.
The pharmacological properties of the compounds of the present invention can be illustrated by determining their capability for displacing radioactively labelled 2-amino-3-hydroxy-5-methyl-4-isoxazolepropionic acid (AMPA) from the AMPA type receptors.
The displacement activity of the compounds may be shown by determining the IC50 value which represents the concentration (μM) which causes a displacement of 50% of the specific binding of ^3 H-AMPA.
^3 H-AMPA binding (Test 1)
500 μl of thawed rat cerebral cortical membrane homogenate in Tris-HCl (30 mM), CaCl2 (2.5 mM) and KSCN (100 mM) pH 7.1 were incubated at 0° C. for 30 min. with 25 μl ^3 H-AMPA (5 nM final concentration) and the test compound and buffer. Nonspecific binding was determined by incubation with L-glutamic acid (600 μM final concentration). The binding reaction was terminated by adding 5 ml of ice-cold buffer followed by filtration through Whatman GF/C glass fibre filters and 2×5 ml wash with ice-cold buffer. Bound radioactivity was measured by scintillation counting. IC50 was determined by Hill analysis of at least four concentrations of test compound.

The subject of test [2] is quisqualic acid stimulated spreading depression in chicken retina. The test is described as follows: Spreading depression (Test 2): antagonism of quisqualic acid stimulated spreading depression in chicken retina. It counts as cell-based. To be noted: Gallus gallus, 0.25 h, quisqualate 1 μg/ml, 26° C., 15 min incubation with test compound, read-out: TEST 2 IC50 (50% maximal inhibition of quisqualic acid stimulated spreading depression). From the text:
The influence of glutamic acid analogues on secondary effects of glutamate receptor interactions may be studied in vitro by using the phenomenon of spreading depression in chicken retina. Such experiments will provide information as to the efficacies (agonist/antagonist) of the test substances. This is in contrast to binding studies, which only provide information on the affinities of the compounds for the receptor.
The pharmacological properties of the compounds of the present invention can be illustrated by determining their capability for displacing radioactively labelled 2-amino-3-hydroxy-5-methyl-4-isoxazolepropionic acid (AMPA) from the AMPA type receptors. […]
The eyes were initially incubated in normal P.S.S. for 15-30 min. and then transferred to P.S.S. containing quisqualate (1 μg/ml). […] The time taken for an S.D. to start in each eye was measured.
After a further 15 min. of incubation in normal P.S.S. the eyes were transferred to normal P.S.S. containing the test compound and incubated for 15 min. […] The time taken for an S.D. to start in each eye was measured again. The eyes were then placed back in normal P.S.S. and after 15 min. the time taken for S.D. to start was measured again, in order to assess the degree of recovery from any drug effects. […]

As to `N[C@@H](Cn1oc(=O)[nH]c1=O)C(=O)O` [quisqualic acid], in the test on AMPA receptors, the “agonist activity at AMPA receptors” value is on record as “potent agonists”.
As to `N[C@@H](CCS(=O)(=O)O)C(=O)O` [L-homocysteic acid], the “agonist activity on NMDA receptors” value in test [1] is recorded as “strong to moderate agonist activity”.
Regarding `O=C(O)[C@@H]1CCCN[C@H]1C(=O)O` (relative stereo) [trans-2,3-PDA, trans-2,3-piperidine dicarboxylic acid], in test [1], the “agonist activity on NMDA receptors” value was “strong to moderate agonist activity”.
With `CCOC(=O)CC[C@H](N)C(=O)OCC` [GDEE, Glutamic acid diethyl ester], the “antagonist activity at AMPA receptors” value in the test on AMPA receptors was “selective but very weak antagonist”. The “sensitivity of excitatory responses to kainic acid to antagonism” value in the test on kainate receptors is on record as “relatively insensitive”.
Consider `N[C@H](CCCP(=O)(O)O)C(=O)O` [D-APV, 2-amino-5-phosphono-valeric acid], for which the “antagonist activity at NMDA receptors” value in test [1] was “most potent and selective antagonists”.
With `N[C@H](CCC(=O)O)C(=O)O` [D-glutamic acid], in test [1], the “agonist activity on NMDA receptors” value was “strong to moderate agonist activity”.
Take `N[C@H](CCC[C@H](N)C(=O)O)C(=O)O` [diaminopimelic acid]: the “antagonist activity at NMDA receptors” value in test [1] is “moderate antagonist activity”.
In the case of `N[C@@H](CCC(=O)O)C(=O)O` [L-glutamic acid], the “agonist activity at AMPA receptors” value with AMPA receptors was “potent agonists”.
`Cc1onc(O)c1CC(N)C(=O)O` (stereo not drawn) [AMPA, 2-amino-3-hydroxy-5-methyl-4-isoxazolepropionic acid]: the “agonist activity at AMPA receptors” value with AMPA receptors is on record as “activated selectively”.
In the case of `N[C@H](CCCC(=O)O)C(=O)O` [D-2-amino-adipic acid], the “antagonist activity at NMDA receptors” value in test [1] is listed as “moderate antagonist activity”.
Turning to `N[C@H](C(=O)O)c1cc(=O)[nH]o1` [Ibotenic acid], the “agonist activity on NMDA receptors” value in test [1] is on record as “strong to moderate agonist activity”.
As for `O=c1[nH]c2cc(-n3ccnc3)c(C(F)(F)F)cc2n2c(=O)[nH]nc12` [Example 2, 7-(1H-Imidazol-1-yl)-8-trifluoromethyl[1,2,4]triazolo[4,3-a]quinoxaline-1,4(2H,5H)-dione], the results for the IC50 (on AMPA type receptors; in test [2]) were 1700 nM and 4800 nM, respectively.
Consider `O=C(O)C1CN(CCCP(=O)(O)O)CCN1` (racemic) [CPP, 3-[(±)-2-carboxy-piperazin-4-yl]-propyl-1-phosphonic acid], for which the “antagonist activity at NMDA receptors” value in test [1] was “most potent and selective antagonists”.
Turning to `O=c1[nH]c2cc(-n3ccnc3)ccc2n2c(=O)[nH]nc12` [Example 1, 7-(1H-Imidazol-1-yl)[1,2,4]triazolo[4,3-a]quinoxaline-1,4(2H,5H)-dione], the IC50 at AMPA type receptors was determined as 180 nM; in test [2], 3900 nM.
On to `N[C@@H](CCC(=O)NCC(=O)O)C(=O)O` [3-glutamyl-glycine], for which the “antagonism / selectivity at kainate receptors” value in the test with kainate receptors (O. Goldberg et al. 1981) is “some selectivity for kainate receptors”.

The values are drawn from patent publication US5532236A, “[1,2,4]triazolo[4,3-a]quinoxaline compounds” (priority 1993, dated 1996).
